What was measured:
Type in all cases: biochemical
[1] = biological target: T1, USP28 (USP28-5(1-1077)-TEV-6*His; LifeSensors) (Homo sapiens, UniProt Q96RU2); test: Ubiquitin-Rhodamine 110 Assay for USP28 Activity, Example A-1(b); details: Example A-1(b)
T1 construct: construct USP28 (USP28-5(1-1077)-TEV-6*His; LifeSensors); TEV cleavage site (C); 6xHis (C); purchased LifeSensors
T1 sequence (Q96RU2 1-1077): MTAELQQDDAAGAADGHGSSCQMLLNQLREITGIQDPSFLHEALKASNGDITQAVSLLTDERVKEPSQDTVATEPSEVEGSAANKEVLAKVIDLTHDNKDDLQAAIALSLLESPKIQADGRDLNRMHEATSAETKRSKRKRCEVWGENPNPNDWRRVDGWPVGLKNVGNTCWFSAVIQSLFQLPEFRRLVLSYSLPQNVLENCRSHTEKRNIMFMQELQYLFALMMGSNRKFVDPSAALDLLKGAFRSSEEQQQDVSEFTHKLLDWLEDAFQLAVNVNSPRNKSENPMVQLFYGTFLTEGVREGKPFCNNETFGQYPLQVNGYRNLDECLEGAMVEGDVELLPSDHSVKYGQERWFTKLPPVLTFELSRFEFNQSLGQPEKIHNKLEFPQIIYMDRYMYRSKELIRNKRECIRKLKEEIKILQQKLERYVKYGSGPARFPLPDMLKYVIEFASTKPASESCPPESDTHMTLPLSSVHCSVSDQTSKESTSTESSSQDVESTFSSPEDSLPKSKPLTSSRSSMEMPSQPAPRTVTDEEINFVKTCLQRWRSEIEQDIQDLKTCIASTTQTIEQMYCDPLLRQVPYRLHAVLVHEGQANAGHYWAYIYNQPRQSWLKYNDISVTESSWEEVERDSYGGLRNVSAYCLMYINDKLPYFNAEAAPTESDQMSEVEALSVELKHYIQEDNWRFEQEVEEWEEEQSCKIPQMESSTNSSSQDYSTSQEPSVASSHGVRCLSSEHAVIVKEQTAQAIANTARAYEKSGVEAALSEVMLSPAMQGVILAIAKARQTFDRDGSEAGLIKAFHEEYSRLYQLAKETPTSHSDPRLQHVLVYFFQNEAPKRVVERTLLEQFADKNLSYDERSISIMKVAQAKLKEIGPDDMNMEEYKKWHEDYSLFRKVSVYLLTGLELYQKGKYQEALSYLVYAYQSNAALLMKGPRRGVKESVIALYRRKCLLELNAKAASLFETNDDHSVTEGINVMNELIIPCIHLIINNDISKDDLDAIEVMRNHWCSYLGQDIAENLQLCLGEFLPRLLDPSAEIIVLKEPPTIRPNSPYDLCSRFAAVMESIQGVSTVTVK
Description: Example A-1(b): Biochemical Assay: Ubiquitin-Rhodamine 110 Assay for USP28 Activity
Each assay was performed in a final volume of 20 μL in assay buffer containing 20 mM Tris-HCl (pH 8.0, (1M Tris-HCl, pH 8.0 solution; Corning 46-031-CM)), 2 mM CaCl2) (1M Calcium Chloride solution; Sigma #21114) 2 mM BME (2-Mercaptoethanol; Sigma 63689-25ML-F), 0.01% Prionex ([…] filtered, Sigma #G-0411), and 0.01% Triton X-100. Stock compound solutions were stored at −20° C. as 10 mM in DMSO. Up to 1 month prior to the assay, 2 mM test compounds were pre-dispensed into assay plates (Black, low volume; Corning #3820) and frozen at −20° C. Prestamped assay plates were allowed to come to room temperature on the day of the assay. For the screen, 100 nL of 2 mM was pre-dispensed for a final screening concentration of 10 μM (DMSO(fc)=0.5%). […] Plates were incubated stacked for 90 minutes at room temperature before fluorescence was read on the Envision (Excitation at 485 nm and Emission at 535 nm; Perkin Elmer) or on the PheraSTAR (Excitation at 485 nm and Emission at 535 nm; BMG Labtech).
For follow-up studies, each assay was performed in a final volume of 15 μL in assay buffer containing 20 mM Tris-HCl (pH 8.0, (1M Tris-HCl, pH 8.0 solution; Corning 46-031-CM)), 3 mM BME (2-Mercaptoethanol; Sigma 63689-25ML-F), 0.03% BGG (0.22 μM filtered, Sigma, G7516-25G), and 0.01% Triton X-100 (Sigma, T9284-10L). Nanoliter quantities of either an 8-point or 10-point, 3-fold serial dilution in DMSO was pre-dispensed into assay plates (Perkin Elmer, ProxiPlate-384 F Plus, #) for a final test concentration of either 25 μM to 11 nM or 25 μM to 1.3 nM, respectively. Enzyme USP28, construct USP28 (USP28-5(1-1077)-TEV-6*His; LifeSensors) concentration and incubation times were optimized for the maximal signal-to-background while maintaining initial velocity conditions at a fixed substrate concentration. The final concentration of the enzyme in the assay was 75 pM. Final substrate (Ub-Rh110; Ubiquitin-Rhodamine 110, R&D Systems #U-555) concentration was 25 nM with [Ub-Rh110]<<Km. 5 μL of 2× enzyme was added to assay plates (pre-stamped with compound) preincubated with USP28 for 30 minutes and then 5 μL of 2×Ub-Rh110 was added to assay plates. Plates were incubated stacked for 20 minutes at room temperature before 5 μL of stop solution was added (final concentration of 10 mM citric acid (Sigma, 251275-500G)). Fluorescence was read on the Envision (Excitation at 485 nm and Emission at 535 nm; Perkin Elmer) or on the PheraSTAR (Excitation at 485 nm and Emission at 535 nm; BMG Labtech).
For assay formats Example A-1(a), A-1(b), and A-2, data were reported as percent inhibition compared with control wells based on the following equation: % inh=1−((FLU−AveLow)/(AveHigh−AveLow)) where FLU=measured Fluorescence, AveLow=average Fluorescence of no enzyme control (n=16), and AveHigh=average Fluorescence of DMSO control (n=16). IC50 values were determined by curve fitting of the standard 4 parameter logistic fitting algorithm included in the Activity Base software package: IDBS XE Designer Model 205. Data is fitted using the Levenburg Marquardt algorithm.

[2] = biological target: T2, USP25 (USP25-His6, Boston Biochem E-546) (Homo sapiens, UniProt Q9UHP3); test: Ubiquitin-Rhodamine 110 Assay for USP25 Activity, Example A-2; details: Ubiquitin-Rhodamine 110 assay, Example A-2; read-out: USP25 A-2 IC50 range
T2 construct: His6; purchased Boston Biochem E-546
T2 sequence (Q9UHP3 1-1055): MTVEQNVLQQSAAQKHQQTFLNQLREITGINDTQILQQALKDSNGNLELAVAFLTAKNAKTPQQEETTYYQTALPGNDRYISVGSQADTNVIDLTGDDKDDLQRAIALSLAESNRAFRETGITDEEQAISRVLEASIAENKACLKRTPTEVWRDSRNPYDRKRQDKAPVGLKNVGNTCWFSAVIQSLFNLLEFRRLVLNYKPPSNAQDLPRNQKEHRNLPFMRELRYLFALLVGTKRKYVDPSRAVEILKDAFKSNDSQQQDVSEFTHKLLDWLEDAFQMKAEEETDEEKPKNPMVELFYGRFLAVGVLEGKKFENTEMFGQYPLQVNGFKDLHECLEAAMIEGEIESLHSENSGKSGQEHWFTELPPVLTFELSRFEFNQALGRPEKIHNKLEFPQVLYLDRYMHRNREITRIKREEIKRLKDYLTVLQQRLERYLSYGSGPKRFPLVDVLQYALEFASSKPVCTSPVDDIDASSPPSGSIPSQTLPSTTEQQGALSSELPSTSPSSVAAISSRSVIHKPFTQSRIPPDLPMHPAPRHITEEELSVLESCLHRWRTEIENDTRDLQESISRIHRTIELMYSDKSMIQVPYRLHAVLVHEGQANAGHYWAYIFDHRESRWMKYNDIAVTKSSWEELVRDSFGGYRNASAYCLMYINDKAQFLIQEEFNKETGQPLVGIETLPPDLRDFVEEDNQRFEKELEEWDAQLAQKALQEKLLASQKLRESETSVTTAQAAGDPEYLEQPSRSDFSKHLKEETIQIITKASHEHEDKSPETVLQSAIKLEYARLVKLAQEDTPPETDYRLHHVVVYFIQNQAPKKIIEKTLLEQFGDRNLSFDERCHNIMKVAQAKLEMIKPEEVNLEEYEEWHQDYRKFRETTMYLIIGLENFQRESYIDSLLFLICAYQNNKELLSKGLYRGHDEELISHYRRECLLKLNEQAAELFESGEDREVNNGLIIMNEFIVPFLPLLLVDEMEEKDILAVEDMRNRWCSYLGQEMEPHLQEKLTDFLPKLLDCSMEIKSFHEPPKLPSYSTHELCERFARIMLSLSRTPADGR
Description: The assay was performed in a final volume of 9 μL in assay buffer containing 20 mM Tris-HCl (pH 8.0, (1M Tris-HCl, pH 8.0 solution; Corning 46-031-CM)), 3 mM BME (2-Mercaptoethanol; Sigma 63689-25ML-F), 0.03% BGG (0.22 μM filtered, Sigma, G7516-25G), and 0.01% Triton X-100 (Sigma, T9284-10L). Nanoliter quantities of 10-point, 3-fold serial dilution in DMSO was pre-dispensed into 1536 assay plates (Corning, #3724BC) for a final test concentration of 25 μM to 1.3 nM, top to lowest dose, respectively. Enzyme USP25, construct USP25-His6, (Boston Biochem E-546). Concentration and incubation times were optimized for the maximal signal-to-background while maintaining initial velocity conditions at a fixed substrate concentration. The final concentration of the enzyme in the assay was 75 pM. Final substrate (Ub-Rh110; Ubiquitin-Rhodamine 110, R&D Systems #U-555) concentration was 25 nM with [Ub-Rh110]<<Km. 3 μL of 2× enzyme was added to assay plates (pre-stamped with compound) preincubated with […] for 30 minutes and then 3 μL of 2×Ub-Rh110 was added to assay plates. Plates were incubated for 45 minutes at room temperature before addition of 3 μL of stop solution (final concentration of 10 mM citric acid (Sigma, 251275-500G)). Fluorescence was read on the Envision (Excitation at 485 nm and Emission at 535 nm; Perkin Elmer) or on the PheraSTAR (Excitation at 485 nm and Emission at 535 nm; BMG Labtech).
IC50 values were determined by curve fitting of the standard 4 parameter logistic fitting algorithm included in the Activity Base software package: IDBS XE Designer Model 205. Data is fitted using the Levenburg Marquardt algorithm.

[3] = biological target: T3, USP28 (His-tagged USP28-FL-mammalian) (Homo sapiens, UniProt Q96RU2); test: Ubiquitin-Rhodamine 110 Assay for USP28 Activity, Example A-1(a); details: Ubiquitin-Rhodamine 110 assay, Example A-1(a); read-out: USP28 A-1(a) IC50 range
T3 construct: Expression of USP28 (1-1077)-TEV-6*His (pTT5 vector); made in house; host or cells: Expi293f cells (pTT5 vector)
T3 sequence (Q96RU2 1-1077): T1 sequence (Q96RU2 1-1077)
In short: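 Full-length His-tagged USP28 (1-1077, Expi293F-expressed; […]) was preincubated 30 min with compound (25 μM–1.3 nM, 10-point 3-fold) in 20 mM Tris-HCl pH 8.0, 3 mM BME, 0.03% BGG, 0.01% Triton X-100. Ub-Rh110 (25 nM) was then added for 45 min at room temperature, stopped with citric acid, and read by fluorescence (485/535 nm).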

SMILES | USP28 A-1(b) IC50 range ([1]; Ubiquitin-Rhodamine 110 assay) | IC50 [3] [nM] | further results
Cc1ccc2c(N)c(C(=O)N[C@@H]3COc4cc(N5CCN[C@@H](C)[C@H]5C)ccc4C3)sc2n1 (single isomer, unassigned) [Example 1-8] | – | – | USP28 A-1(b) IC50 range ([1]; Ub-Rh110 assay): ++++ (0.001-0.05 μM)
Cc1ccc2c(N)c(C(=O)N[C@H]3COc4cc(N5CC6CCC(C5)N6)cc(F)c4C3)sc2n1 (single isomer, unassigned) [Example 1-29] | – | – | USP28 A-1(b) IC50 range ([1]; Ub-Rh110 assay): +++ (0.05-0.2 μM)
Cc1ccc2c(N)c(C(=O)N[C@H]3COc4cc(N5CCNCC5)ccc4[C@H]3C)sc2n1 (single isomer, unassigned) [Example 11-15] | + (>2 μM) | – | –
Cc1ccc2c(N)c(C(=O)N[C@H]3COc4cc(N5CCNCC5)ccc4[C@@H]3C)sc2n1 (single isomer, unassigned) [Example 11-16] | + (>2 μM) | – | –
Cc1ccc2c(N)c(C(=O)NC3COc4cc(N5CCNCC5)ccc4C3C)sc2n1 (single isomer, unassigned) [Example 11-17] | – | – | IC50 [2]: > 2000 nM
Cc1cnc2c(N)c(C(=O)N[C@H]3CCc4cc(N5CCNCC5)ccc4C3)sc2n1 (single isomer, unassigned) [Example 11-19] | ++ (0.2-2 μM) | – | –
CO[C@@]12CCN[C@H]1CN(c1ccc3c(n1)CC[C@H](NC(=O)c1sc4nc(C)ccc4c1N)C3)C2 [Example 434, N-[(6S)-2-[(3aR,6aS)-3a-methoxy-octahydropyrrolo[2,3-c]pyrrol-5-yl]-5,6,7,8-tetrahydroquinolin-6-yl]-3-amino-6-methylthieno[2,3-b]pyridine-2-carboxamide] | – | 50 to 200 | –
CO[C@]12CCN[C@@H]1CN(c1ccc3c(n1)CC[C@H](NC(=O)c1sc4nc(C)ccc4c1N)C3)C2 [Example 435, N-[(6S)-2-[(3aS,6aR)-3a-methoxy-octahydropyrrolo[2,3-c]pyrrol-5-yl]-5,6,7,8-tetrahydroquinolin-6-yl]-3-amino-6-methylthieno[2,3-b]pyridine-2-carboxamide] | – | 50 to 200 | –
Cc1ccc2c(N)c(C(=O)N[C@H]3CCc4cc(N5C[C@@H](CF)[C@@H](N)C5)ccc4C3)sc2n1 [Example 436, 3-amino-N-[(2S)-6-[(3R,4R)-3-amino-4-(fluoromethyl)pyrrolidin-1-yl]-1,2,3,4-tetrahydronaphthalen-2-yl]-6-methylthieno[2,3-b]pyridine-2-carboxamide] | – | 1 to 50 | –

Reference: patent US11524966B1 (Valo Early Discovery, Inc., priority 2017, dated 2022)
